Source: US8580806B2, “Salts of 4-methyl N-[3-(4-methyl-imidazol-1-yl)-5-trifluoromethyl-phenyl]-3-(4-pyridin-3-yl-pyrimidin-2-ylamino)-benzamide” (Novartis AG, priority 2005, dated 2013)
Counter-ions that a name gives are not always drawn. Like-named read-outs stand apart in the source and are kept apart here.

What was measured:
[1] = Hygroscopicity by TGA after one day at ambient temperature and 93% relative humidity; format: physicochemical; conditions: ambient temperature
Procedure: The hygroscopicity of the salts of the invention was determined by TGA after one day at ambient temperature and 93% relative humidity.

[2] = Decomposition temperature by TGA; format: physicochemical; conditions: for Decomposition temperature: TGA, onset of the first derivative of sample weight loss v. temperature; for decomposes at: as stated in the description of the embodiments
Procedure: The LOD and decomposition temperature of the salts of the invention were determined by TGA, and the melting point was determined by DSC.

[3] = pH 3.0 buffer, ambient temperature, at least 20 hours
Procedure: The solubility of the salts of the invention was determined in pH 6.8, pH 3.0 and pH 1.0 buffers by suspending 1-5 mg of each salt in 10 mL of corresponding aqueous solution. The samples were allowed to equilibrate at ambient temperature for at least 20 hours for pH 6.8 and 3.0 or about 5 hours for pH 1.0. The supernatant was filtered and used for the solubility determination by UV-VIS spectroscopy.

[4] = pKa values of the free base; format: physicochemical; conditions: two values
Procedure: In a second step of the present inventive method, the 4-methyl-N-[3-(4-methyl-imidazol-1-yl)-5-trifluoromethyl-phenyl]-3-(4-pyridin-3-yl-pyrimidin-2-ylamino)-benzamide free base is treated with an appropriate acid of the formula HB. […] Suitable acids include, without limitation, inorganic acids such as hydrochloric acid, phosphoric acid, sulfuric acid, and sulfonic acid and organic acids such as methane sulfonic acid, ethane sulfonic acid, benzene sulfonic acid, p-toluene sulfonic acid, citric acid, fumaric acid, gentisic acid, malonic acid, maleic acid, and tartaric acid.

[5] = Stability of solutions or suspensions (Table 15); format: physicochemical
[6] = Solid state stability: heat, humidity, xenon light (Table 15); format: physicochemical
[7] = Intrinsic Dissolution Rate (rotating disk method); format: physicochemical; conditions: 37° C., 200 rpm
Procedure: Intrinsic Dissolution Rate (IDR): Dissolution rate measurements were performed at 37° C. using the rotating disk method (VanKell Instrument). A single rotation speed of 200 rpm was used. For IDR in 0.1 N HCl, an 800 mL volume, and for IDE in water, a 200 mL volume were used. The solution was continuously pumped through a UV measuring cell and recycled to the dissolution vessel.

[8] = pH of 1% solution or suspension in water; format: physicochemical; conditions: 1% in water; listed as Free base form B
[9] = listed as Control - free base form B
[10] = 0.1% solutions or suspensions, 1 week at 80° C., Acetonitrile
[11] = 0.1% solutions or suspensions, 1 week at 80° C., Ethanol
[12] = 0.1% solutions or suspensions, 1 week at 80° C., Methanol
[13] = 0.1% solutions or suspensions, 1 week at 80° C., Water (pH measured: 4.74; pH measured for HCl salt: 4.22)
[14] = 0.1% solutions or suspensions, 1 week at 80° C., pH 1 (pH measured: 1.26)
[15] = 0.1% solutions or suspensions, 1 week at 80° C., pH 2 (pH measured: 2.00)
[16] = 0.1% solutions or suspensions, 1 week at 80° C., pH 3 (pH measured: 2.94)
[17] = 0.1% solutions or suspensions, 1 week at 80° C., pH 5 (pH measured: 5.01)
[18] = 0.1% solutions or suspensions, 1 week at 80° C., pH 7 (pH measured: 6.02)
[19] = 0.1% solutions or suspensions, 1 week at 80° C., pH 9 (pH measured: 8.92)
[20] = 0.1% solutions or suspensions, 1 week at 80° C., pH 11 (pH measured: 10.86)
[21] = 0.1% solutions or suspensions, PH 1, 1 week @ 50° C.
[22] = 2% solutions or suspensions, 1 day at room temperature, 0.5% CMC
[23] = 2% solutions or suspensions, 1 day at room temperature, 0.5% HPMC cellulose 4000
[24] = 2% solutions or suspensions, 1 day at room temperature, 0.8% Tween 80
[25] = 5% solutions in DMSO, 1 day at room temperature, 1:100 dilution in pH 6.8 buffer
[26] = Solid state, 1 week 80° C., 75% relative humidity, 30% in mixture 1
[27] = Solid state, 1 week 80° C., 75% relative humidity, 30% in mixture 2
[28] = Solid state, 1 week 80° C., 75% relative humidity, Bulk (HPLC)
[29] = Solid state, 1 week 80° C., tight container, 30% in mixture 1
[30] = Solid state, 1 week 80° C., tight container, 30% in mixture 2
[31] = Solid state, 1 week 80° C., tight container, Bulk (HPLC)
[32] = Xenon light (approximately 200 kLuxh), Bulk (HPLC)

Compound: Cc1cn(-c2cc(NC(=O)c3ccc(C)c(Nc4nccc(-c5cccnc5)n4)c3)cc(C(F)(F)F)c2)cn1 [Methane sulfonate, 4-methyl-N-[3-(4-methyl-imidazol-1-yl)-5-trifluoromethyl-phenyl]-3-(4-pyridin-3-yl-pyrimidin-2-ylamino)-benzamide mesylate salt]
- % moisture gain ([1]; mesylate salt): 0.22%
- Decomposition temperature ([2]; mesylate salt): 260 °C
- decomposes at ([2]; listed as methane sulfonate (mesylate) salt, mesylate salt): about 260 °C
- Solubility at pH 3.0 ([3]; listed as Methane sulfonate salt, mesylate salt): 5.2 μg/mL

Compound: Cc1cn(-c2cc(NC(=O)c3ccc(C)c(Nc4nccc(-c5cccnc5)n4)c3)cc(C(F)(F)F)c2)cn1 [Monophosphate, 4-methyl-N-[3-(4-methyl-imidazol-1-yl)-5-trifluoromethyl-phenyl]-3-(4-pyridin-3-yl-pyrimidin-2-ylamino)-benzamide monophosphate salt]
- % moisture gain ([1]; monophosphate salt): 1.33%
- Decomposition temperature ([2]; monophosphate salt): 212 °C
- decomposes at ([2]; monophosphate salt): about 212 °C

Compound: Cc1cn(-c2cc(NC(=O)c3ccc(C)c(Nc4nccc(-c5cccnc5)n4)c3)cc(C(F)(F)F)c2)cn1 [p-Toluene sulfonate, 4-methyl-N-[3-(4-methyl-imidazol-1-yl)-5-trifluoromethyl-phenyl]-3-(4-pyridin-3-yl-pyrimidin-2-ylamino)-benzamide p-toluene sulfonate salt]
- % moisture gain [1]: 1.02%
- Decomposition temperature [2]: 256 °C
- decomposes at [2]: about 256 °C

Compound: Cc1cn(-c2cc(NC(=O)c3ccc(C)c(Nc4nccc(-c5cccnc5)n4)c3)cc(C(F)(F)F)c2)cn1 [Free base (form B), 4-methyl-N-[3-(4-methyl-imidazol-1-yl)-5-trifluoromethyl-phenyl]-3-(4-pyridin-3-yl-pyrimidin-2-ylamino)-benzamide]
- pKa [4]: 5.1
- % moisture gain [1, 9]: 0.08%
- Appearance [5, 10]: A*
- Assay [5, 10]: 100.16
- Assay [% area]: bracketed % area [5, 10]: 100.00 % area
- Appearance [5, 11]: A*
- Assay [5, 11]: 99.85
- Assay [% area]: bracketed % area [5, 11]: 99.96 % area
- Appearance [5, 12]: A*
- Assay [5, 12]: 98.04
- Assay [% area]: bracketed % area [5, 12]: 98.90 % area
- Appearance [5, 13]: A↓
- Assay [5, 13]: 101.93
- Assay [% area]: bracketed % area [5, 13]: 100.00 % area
- Appearance [5, 14]: A*
- Assay [5, 14]: 50.22
- Assay [% area]: bracketed % area [5, 14]: 45.31 % area
- Appearance [5, 15]: B↓
- Assay [5, 15]: 96.00
- Assay [% area]: bracketed % area [5, 15]: 94.86 % area
- Appearance [5, 16]: A↓
- Assay [5, 16]: 102.19
- Assay [% area]: bracketed % area [5, 16]: 100.00 % area
- Appearance [5, 17]: A↓
- Assay [5, 17]: 100.80
- Assay [% area]: bracketed % area [5, 17]: 100.00 % area
- Appearance [5, 18]: A↓
- Assay [5, 18]: 100.14
- Assay [% area]: bracketed % area [5, 18]: 100.00 % area
- Appearance [5, 19]: A↓
- Assay [5, 19]: 99.19
- Assay [% area]: bracketed % area [5, 19]: 100.00 % area
- Appearance [5, 20]: A↓
- Assay [5, 20]: 100.50
- Assay [% area]: bracketed % area [5, 20]: 100.00 % area
- Appearance [5, 21]: A*
- Assay [5, 21]: 94.01
- Assay [% area]: bracketed % area [5, 21]: 93.44 % area
- Appearance [5, 22]: A↓
- Assay [5, 22]: 98.28
- Assay [% area]: bracketed % area [5, 22]: 100.00 % area
- Appearance [5, 23]: A↓
- Assay [5, 23]: 98.27
- Assay [% area]: bracketed % area [5, 23]: 100,00 % area
- Appearance [5, 24]: A↓
- Assay [5, 24]: 98.78
- Assay [% area]: bracketed % area [5, 24]: 100.00 % area
- Appearance [5, 25]: A↓
- Assay [5, 25]: 96.98
- Assay [% area]: bracketed % area [5, 25]: 100.00 % area
- Assay ([5]; Unstressed): 100.99
- Assay [% area]: bracketed % area ([5]; Unstressed): 100.00 % area
- Bulk (XRPD) ([6]; Solid state, 1 week 80° C., 75% relative humidity): No change
- Assay [6, 26]: 99.38
- Assay [% area]: bracketed % area [6, 26]: 100.00 % area
- Assay [6, 27]: 89.37
- Assay [% area]: bracketed % area [6, 27]: 96.02 % area
- Assay [6, 28]: 99.97
- Assay [% area]: bracketed % area [6, 28]: 100.00 % area
- Bulk (XRPD) ([6]; Solid state, 1 week 80° C., tight container): No change
- Assay [6, 29]: 100.11
- Assay [% area]: bracketed % area [6, 29]: 100.00 % area
- Assay [6, 30]: 94.28
- Assay [% area]: bracketed % area [6, 30]: 97.75 % area
- Assay [6, 31]: 99.77
- Assay [% area]: bracketed % area [6, 31]: 100.00 % area
- Bulk (XRPD) ([6]; Xenon light (approximately 200 kLuxh)): No change
- Assay [6, 32]: 96.03
- Assay [% area]: bracketed % area [6, 32]: 100.00 % area
- Intrinsic dissolution rate ([7]; Water, listed as Free base form B): 0.0013 mg min^−1 cm^−2
- Intrinsic dissolution rate ([7]; pH 1 (0.1N HCl)): 0.17 mg min^−1 cm^−2
- pH of 1% solution or suspension in water [8]: 7.99
- Solubility at pH 3.0 [3, 9]: 2.8 μg/mL

Compound: Cc1cn(-c2cc(NC(=O)c3ccc(C)c(Nc4nccc(-c5cccnc5)n4)c3)cc(C(F)(F)F)c2)cn1 [Benzene sulfonate, 4-methyl-N-[3-(4-methyl-imidazol-1-yl)-5-trifluoromethyl-phenyl]-3-(4-pyridin-3-yl-pyrimidin-2-ylamino)-benzamide mono benzyl sulfonate salt]
- % moisture gain [1]: 0.11%
- Decomposition temperature [2]: 260 °C
- decomposes at ([2]; listed as benzene sulfonate salt): about 260 °C

Compound: Cc1cn(-c2cc(NC(=O)c3ccc(C)c(Nc4nccc(-c5cccnc5)n4)c3)cc(C(F)(F)F)c2)cn1.O=S(=O)(O)O [Sulfate (form B), sulfate salt of 4-methyl-N-[3-(4-methyl-imidazol-1-yl)-5-trifluoromethyl-phenyl]-3-(4-pyridin-3-yl-pyrimidin-2-ylamino)-benzamide]
- % moisture gain [1]: 0.22%
- Decomposition temperature [2]: 201 °C
- decomposes at [2]: about 206 °C
- Solubility at pH 3.0 [3]: 6.5 μg/mL

Compound: Cc1cn(-c2cc(NC(=O)c3ccc(C)c(Nc4nccc(-c5cccnc5)n4)c3)cc(C(F)(F)F)c2)cn1.O=P(O)(O)O.O=P(O)(O)O [diphosphate salt, diphosphate salt of 4-methyl-N-[3-(4-methyl-imidazol-1-yl)-5-trifluoromethyl-phenyl]-3-(4-pyridin-3-yl-pyrimidin-2-ylamino)-benzamide]
- decomposes at [2]: about 210 °C

Compound: CCS(=O)(=O)O.Cc1cn(-c2cc(NC(=O)c3ccc(C)c(Nc4nccc(-c5cccnc5)n4)c3)cc(C(F)(F)F)c2)cn1 [Ethane sulfonate, ethane sulfonate salt of 4-methyl-N-[3-(4-methyl-imidazol-1-yl)-5-trifluoromethyl-phenyl]-3-(4-pyridin-3-yl-pyrimidin-2-ylamino)-benzamide]
- % moisture gain [1]: 1.11%
- Decomposition temperature [2]: 220 °C
- decomposes at [2]: about 220 °C
- Solubility at pH 3.0 [3]: 2.8 μg/mL
